We go through 8 compounds from patent US20160108049A1 (TAKEDA Gmbh, priority 2011, published 2016).

One assay addresses T1, PDE4B1 (Homo sapiens, UniProt Q07343).
T1 construct: made in house; host or cells: SF21 insect cells (baculovirus; virus made in SF9 cells, pCR-Bac vector)
Briefly: Inhibition of PDE4 activity (PDE4B1, SPA assay). Format: biochemical. To be noted: recombinant PDE4B1, 0.5 μM cAMP; read-out: PDE4B1 Inhibitory values measured as -logIC50 (converted). The method, then:
Method for Measuring Inhibition of PDE4 Activity
The PDE4B1 (GB no. L20966) was a gift of Prof. M. Conti (Stanford University, USA). It was amplified from the original plasmid (pCMV5) via PCR with primers Rb18 (5′-[…]-3′) and Rb10 (5′-[…]-3′) and cloned into the pCR-Bac vector (Invitrogen, Groningen, NL).
The recombinant baculovirus was prepared by means of homologous recombination in SF9 insect cells. The expression plasmids were cotransfected with Baculo-Gold DNA (Pharmingen, Hamburg) using a standard protocol (Pharmingen, Hamburg). Wt virus-free recombinant virus supernatants were selected using plaque assay methods. After that, high-titre virus supernatants were prepared by amplifying 3 times. PDE4B1 was expressed in SF21 cells by infecting 2×10^6 cells/ml with an MOI (multiplicity of infection) between 1 and 10 in the serum-free SF900 medium (GIBCO Life Technologies, Karlsruhe, Germany) The cells were cultured at 28° C. for 48-72 hours, after which they were pelleted for 5-10 min at 1000×g and 4° C.
The SF21 insect cells were resuspended, at a concentration of approx. 10^7 cells/ml, in ice-cold (4° C.) homogenization buffer (20 mM Tris, pH 8.2, containing the following additions: 140 mM NaCl, 3.8 mM KCl, 1 mM EGTA, 1 mM MgCl2, 10 mM β-mercaptoethanol, 2 mM benzamidine, 0.4 mM Pefablock, 10 μM leupeptin, 10 μM pepstatin A, 5 μM trypsin inhibitor) and disrupted by ultrasonication. The homogenate was then centrifuged for 10 min at 1000×g and the supernatant was stored at −80° C. until subsequent use (see below). The protein content was determined by the Bradford method (BioRad, Munich) using BSA (Bovine serum albumin) as the standard.
PDE4B1 activities were measured in a 96-well platform using SPA (scintillation proximity assay) yttrium silicate beads (RPNQ1050 from GE Healthcare). In a first step the PDE activity operated hydrolysis of either [^3H] cAMP (substrate) into […]. In a second step substrate and product were distinguished following addition of SPA yttrium silicate beads. […] Close proximity of bound [^3H] […] The test volume was 100 μl and finally contained 20 mM Tris buffer (pH 7.4), 0.1 mg/ml of BSA, 5 mM Mg^2+, 0.5 μM cAMP (including about 50,000 cpm of [3H]cAMP) as substrate, 1 μl of the respective substance dilution in DMSO and sufficient recombinant PDE (1000×g supernatant, see above) to ensure that 10-20% of the cAMP was converted under the said experimental conditions. […] After a preincubation of 5 min at 37° C., the reaction was commenced by adding the substrate (cAMP) and the assays were incubated for a further 15 min. Reactions were terminated by adding SPA beads (50 μl). In agreement with the manufacturer's instructions, the SPA beads had previously been resuspended in water, but were then diluted 1:3 (v/v) in water. This diluted solution further contained 3 mM IBMX (isobutylmethylxanthine) to ensure a complete block of PDE activity. Once the beads were sedimented (>30 min), the MTP's (micro titerplate) were analyzed in commercially available […]. The corresponding IC50 values of the compounds for inhibition of PDE4B1 activity were determined from the concentration-effect curves by means of non-linear regression.
(§1) The numbers of the compounds correspond to the numbers of the examples.

In another assay the target is T2, human PDE5 (Homo sapiens, UniProt O76074).
T2 construct: from tissue; host or cells: human platelets from fresh donor blood (platelet lysate)
Briefly: Inhibition of PDE5 activity (platelet lysate, SPA assay). The assay is classed as biochemical. The settings on record: 0.5 μM cGMP, read-out: PDE5 Inhibitory values measured as -logIC50 (converted). The method, then: Method for Measuring Inhibition of PDE5 Activity
As a source for human PDE5, platelets were used. For that purpose, 150 ml fresh blood from human donors anticoagulated with citrate [final concentration 0.3% (w/v)] was centrifuged at 200 g for 10 min to obtain the so-called platelet-rich-plasma (PRP) as a supernatant. […] After centrifugation (1,400 g, 10 min) the cell pellet was resuspended in 3 ml homogenization buffer (NaCl 140 mM, KCl 3.8 mM, EGTA (ethylene glycol tetraacetic acid) 1 mM, MgCl2 1 mM, Tris-HCl 20 mM, beta-mercaptoethanol 1 mM, pH 8.2) plus protease-inhibitor mix resulting in final concentrations of 0.5 mM Pefablock (Roche), 10 μM Leupeptin, 5 μM Trypsine inhibitor, 2 mM Benzamidin and 10 μM Pepstatin A. The suspension was sonicated and thereafter centrifuged for 15 min at 10,000 g. The resulting supernatant (platelet lysate) was used for enzymatic assays.
PDE5 activities were measured in a 96-well platform using SPA (scintillation proximity assay) yttrium silicate beads (RPNQ1050 from GE Healthcare). In a first step the PDE activity operated hydrolysis of either [^3H] cGMP (substrate) into [^3H] 5′GMP. In a second step substrate and product were distinguished following addition of SPA yttrium silicate beads. Indeed, in the presence of zinc sulphate the linear [^3H] […] Close proximity of bound [^3H] […] The test volume was 100 μl and contained 20 mM Tris buffer (pH 7.4), 0.1 mg of BSA (bovine serum albumin)/ml, 5 mM Mg^2+, 1 μM motapizone (PDE3 Inhibitor), 10 nM PDE2 inhibitor 2-(3,4-dimethoxybenzyl)-7-[(1R,2R)-2-hydroxy-1-(2-phenylethyl)propyl]-5-methylimidazo[5,1-f][1,2,4]triazin-4(3H)-one, 0.5 μM cGMP (cyclic guanosine monophosphate) (including about 50,000 cpm of [3H]cGMP as a tracer) (substrate), 1 μl of the respective compound dilution in dimethylsulfoxide (DMSO) and sufficient PDE5-containing platelet lysat (10,000×g supernatant, see above) to ensure that 10-20% of the cGMP was converted under the said experimental conditions. […] After a preincubation of 5 min at 37° C., the reaction was commenced by adding the substrate (cGMP) and the assay was incubated for a further 15 min. The reaction was terminated by adding SPA beads (50 μl). In agreement with the manufacturer's instructions, the SPA beads had previously been resuspended in water, but were then diluted 1:3 (v/v) in water. This diluted solution also contained 3 mM 8-methoxymethyl-3-isobutyl-1-methylxanthine (IBMX) to ensure a complete block of PDE activity. Once the beads were sedimented (>30 min), the MTP's were analyzed in commercially available luminescence detection devices. The corresponding IC50 values of the compounds for inhibition of PDE activity were determined from the concentration-effect curves by means of non-linear regression.
as §1

T1 sequence (Q07343 whole entry): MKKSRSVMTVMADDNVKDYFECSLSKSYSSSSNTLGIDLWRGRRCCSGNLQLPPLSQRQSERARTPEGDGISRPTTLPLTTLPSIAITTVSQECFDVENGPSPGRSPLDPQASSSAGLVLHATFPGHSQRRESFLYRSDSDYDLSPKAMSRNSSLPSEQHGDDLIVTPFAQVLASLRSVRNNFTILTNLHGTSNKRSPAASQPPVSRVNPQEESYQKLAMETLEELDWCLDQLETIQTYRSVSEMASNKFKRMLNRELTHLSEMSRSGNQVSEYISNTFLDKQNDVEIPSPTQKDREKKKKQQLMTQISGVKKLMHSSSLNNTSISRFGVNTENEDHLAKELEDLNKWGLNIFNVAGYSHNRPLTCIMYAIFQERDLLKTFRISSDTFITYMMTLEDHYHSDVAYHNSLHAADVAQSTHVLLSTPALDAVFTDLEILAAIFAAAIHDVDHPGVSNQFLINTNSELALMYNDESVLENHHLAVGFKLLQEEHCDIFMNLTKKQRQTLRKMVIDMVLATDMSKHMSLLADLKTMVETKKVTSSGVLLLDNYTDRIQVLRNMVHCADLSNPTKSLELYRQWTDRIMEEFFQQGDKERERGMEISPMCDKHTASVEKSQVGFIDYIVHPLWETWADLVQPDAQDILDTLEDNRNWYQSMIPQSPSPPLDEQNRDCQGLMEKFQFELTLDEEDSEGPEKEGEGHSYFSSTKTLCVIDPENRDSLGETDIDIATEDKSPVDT

In the case of `COc1ccc(C2=NN(C3CCN(C(=O)[C@H](Cc4cccnc4)NC(=O)c4c[nH]c5c(-c6c(OCC7CC7)ccc7c6OCO7)ncnc45)CC3)C(=O)C(C)(C)C2)c2c1OC(C)(C)C2` [Example 114, 4-[5-(cyclopropylmethoxy)-1,3-benzodioxol-4-yl]-N-[(2S)-1-{4-[3-(7-methoxy-2,2-dimethyl-2,3-dihydro-1-benzofuran-4-yl)-5,5-dimethyl-6-oxo-5,6-dihydropyridazin-1(4H)-yl]piperidin-1-yl}-1-oxo-3-(pyridin-3-yl)propan-2-yl]-5H-pyrrolo[3,2-d]pyrimidine-7-carboxamide], the results for the IC50 on PDE4B1 and on human PDE5 were 1 to 10 nM and under 1 nM, respectively.
The like results for `COc1ccc(C2=NN(C3CCN(C(=O)[C@@H](Cc4ccccc4)NC(=O)c4c(C)[nH]c5c(-c6c(OCC7CC7)ccc7c6OCO7)ncnc45)CC3)C(=O)C(C)(C)C2)cc1OC` [Example 66, 4-[5-(cyclopropylmethoxy)-1,3-benzodioxol-4-yl]-N-[(2R)-1-{4-[3-(3,4-dimethoxyphenyl)-5,5-dimethyl-6-oxo-5,6-dihydropyridazin-1(4H)-yl]piperidin-1-yl}-1-oxo-3-phenylpropan-2-yl]-6-methyl-5H-pyrrolo[3,2-d]pyrimidine-7-carboxamide] were, in that order, under 1 nM and under 1 nM.
With `COc1ccc(C2=NN(C3CCN(C(=O)[C@@H](CC(C)C)NC(=O)c4c[nH]c5c(-c6c(OCC7CC7)ccc7c6OCO7)ncnc45)CC3)C(=O)[C@@H]3CCCC[C@H]23)cc1OC` [Example 95, 4-[5-(cyclopropylmethoxy)-1,3-benzodioxol-4-yl]-N-[(2R)-1-{4-[(4aS,8aR)-4-(3,4-dimethoxyphenyl)-1-oxo-4a,5,6,7,8,8a-hexahydrophthalazin-2(1H)-yl]piperidin-1-yl}-4-methyl-1-oxopentan-2-yl]-5H-pyrrolo[3,2-d]pyrimidine-7-carboxamide], the IC50 at PDE4B1 and on human PDE5 was under 1 nM each time.
Regarding `COc1ccc(C2=NN(C3CCN(C(=O)[C@H](Cc4cccnc4)NC(=O)c4c(C)[nH]c5c(-c6c(OCC7CC7)ccc7c6OCO7)ncnc45)CC3)C(=O)[C@@H]3CCCC[C@H]23)cc1OC` [Example 42, 4-[5-(cyclopropylmethoxy)-1,3-benzodioxol-4-yl]-N-[(2S)-1-{4-[(4aS,8aR)-4-(3,4-dimethoxyphenyl)-1-oxo-4a,5,6,7,8,8a-hexahydrophthalazin-2(1H)-yl]piperidin-1-yl}-1-oxo-3-(pyridin-3-yl)propan-2-yl]-6-methyl-5H-pyrrolo[3,2-d]pyrimidine-7-carboxamide], the IC50 on PDE4B1 and on human PDE5 was under 1 nM each time.
With `COc1cc(OCC2CC2)c(-c2ncnc3c(C(=O)N[C@H](Cc4ccccc4)C(=O)N4CCC(N5N=C(c6ccc(OC)c(OC)c6)CC(C)(C)C5=O)CC4)c(C)[nH]c23)cc1F` [Example 69, 4-[2-(cyclopropylmethoxy)-5-fluoro-4-methoxyphenyl]-N-[(2R)-1-{4-[3-(3,4-dimethoxyphenyl)-5,5-dimethyl-6-oxo-5,6-dihydropyridazin-1(4H)-yl]piperidin-1-yl}-1-oxo-3-phenylpropan-2-yl]-6-methyl-5H-pyrrolo[3,2-d]pyrimidine-7-carboxamide], the IC50 on PDE4B1 and at human PDE5 was 1 to 10 nM in each case.
As for `COc1ccc(C2=NN(C3CCN(C(=O)[C@@H](Cc4cn(C)c5ccccc45)NC(=O)c4c[nH]c5c(-c6c(OCC7CC7)ccc7c6OCO7)ncnc45)CC3)C(=O)[C@@H]3CCCC[C@H]23)cc1OC` [Example 93, 4-[5-(cyclopropylmethoxy)-1,3-benzodioxol-4-yl]-N-[(2R)-1-{4-[(4aS,8aR)-4-(3,4-dimethoxyphenyl)-1-oxo-4a,5,6,7,8,8a-hexahydrophthalazin-2(1H)-yl]piperidin-1-yl}-3-(1-methyl-1H-indol-3-yl)-1-oxopropan-2-yl]-5H-pyrrolo[3,2-d]pyrimidine-7-carboxamide], the results for the IC50 at PDE4B1 and at human PDE5 were under 1 nM and 1 to 10 nM, respectively.
Take `COc1ccc(C2=NN(C3CCN(C(=O)[C@@H](NC(=O)c4c[nH]c5c(-c6c(OCC7CC7)ccc7c6OCO7)ncnc45)C4CCCCC4)CC3)C(=O)[C@@H]3CCCC[C@H]23)cc1OC` [Example 73, N-[(1S)-1-cyclohexyl-2-{4-[(4aS,8aR)-4-(3,4-dimethoxyphenyl)-1-oxo-4a,5,6,7,8,8a-hexahydrophthalazin-2(1H)-yl]piperidin-1-yl}-2-oxoethyl]-4-[5-(cyclopropylmethoxy)-1,3-benzodioxol-4-yl]-5H-pyrrolo[3,2-d]pyrimidine-7-carboxamide]: the IC50 on PDE4B1 and at human PDE5 was 1 to 10 nM each time.
Turning to `COc1ccc(C2=NN(C3CCN(C(=O)[C@H](Cc4cscn4)NC(=O)c4c(C)[nH]c5c(-c6c(OCC7CC7)ccc7c6OCO7)ncnc45)CC3)C(=O)[C@@H]3CCCC[C@H]23)cc1OC` [Example 87, 4-[5-(cyclopropylmethoxy)-1,3-benzodioxol-4-yl]-N-[(2S)-1-{4-[(4aS,8aR)-4-(3,4-dimethoxyphenyl)-1-oxo-4a,5,6,7,8,8a-hexahydrophthalazin-2(1H)-yl]piperidin-1-yl}-1-oxo-3-(1,3-thiazol-4-yl)propan-2-yl]-6-methyl-5H-pyrrolo[3,2-d]pyrimidine-7-carboxamide], the IC50 at human PDE5 is under 1 nM.
